What was measured:
[1] = biological target: SSTR3 mutants (Homo sapiens, UniProt P32745); assay: SSTRs Gi-mediated cAMP inhibition, GloSensor, HEK293 (SSTR3 mutants); assay type: cell-based; set-up: Bottom / Top / Span / Top (best-fit): unit not given here; details: for LogEC50 (best-fit) / Top (best-fit): cAMP inhibition, SSTR3 N101V
Method: (§1) The levels of the intracellular 3′, 5′-cyclic AMP (cAMP) were measured by the GloSensor cAMP assay (Promega) as described in the previous studies[28],[41] which has been widely used. The human full-length SSTRs and mutants were cloned into the pcDNA3.1+ vector with a HA signal sequence followed by a Flag tag at the N-terminus. […] Cells were then co-transfected with SSTR wild-type or mutants and GloSensor plasmids. After 24 h of transfection, the cells were dissociated with TrypLE™ Express Enzyme (1X) (Thermo Fisher Scientific) and collected by centrifugation at 500 × g for 5 min. Then the collected cells were suspended in Hank’s balanced salt solution [HBSS (Thermo Fisher Scientific)] supplemented with […] potassium salt solution (YEASEN), and then the suspension cells were seeded into 96-well plates with 90 μl/well. After incubating at room temperature for 40 min, 5 μM forskolin and ligands diluted in HBSS were added to each well and the plates were incubated at room temperature for 15 min. […] signals were measured using the Synergy H1 microplate reader (BioTek) and the data presented are means of at least three independent experiments.

[2] = biological target: T1, SSTR3 mutants (Homo sapiens, UniProt P32745, H192T); assay: as above; assay type: cell-based; set-up: Bottom / Top / Span / Top (best-fit): unit not given here; details: for LogEC50 (best-fit) / Top (best-fit): cAMP inhibition, SSTR3 H192T
T1 construct: The human full-length SSTRs and mutants were cloned into the pcDNA3.1+ vector; expressed in transfected cells; host or cells: HEK293 (ATCC, CRL-1573)
T1 sequence (P32745 whole entry H192T): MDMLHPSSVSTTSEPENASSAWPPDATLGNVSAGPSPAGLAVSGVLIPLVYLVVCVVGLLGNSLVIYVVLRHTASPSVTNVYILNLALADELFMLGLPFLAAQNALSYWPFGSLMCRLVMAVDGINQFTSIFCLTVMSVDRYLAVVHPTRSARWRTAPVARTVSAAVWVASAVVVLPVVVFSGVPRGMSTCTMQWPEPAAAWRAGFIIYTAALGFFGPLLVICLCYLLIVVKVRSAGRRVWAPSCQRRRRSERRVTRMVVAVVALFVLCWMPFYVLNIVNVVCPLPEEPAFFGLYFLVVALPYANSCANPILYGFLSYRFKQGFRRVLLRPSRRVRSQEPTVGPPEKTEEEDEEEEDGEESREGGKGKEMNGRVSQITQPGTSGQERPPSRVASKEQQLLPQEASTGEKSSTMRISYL
Method: as §1

[3] = biological target: SSTR2 (Homo sapiens, UniProt P30874); assay: Bystander BRET endosomal trafficking (β-arrestin 1-Nluc, FYVE-mVenus), HEK293 (SSTR2 wild-type); assay type: cell-based; set-up: The human full-length SSTRs and mutants were cloned into the pcDNA3.1+ vector; expressed in transfected cells; host or cells: HEK293;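 also: HEK293 cells coexpressing Nluc-tagged β-arrestin 1 and mVenus-fused FYVE endosomal marker, bystander BRET ratio read after ligand addition, coelenterazine h substrate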
SSTR2 (Homo sapiens, UniProt P30874), sequence (P30874 whole entry, the tested form may be a part): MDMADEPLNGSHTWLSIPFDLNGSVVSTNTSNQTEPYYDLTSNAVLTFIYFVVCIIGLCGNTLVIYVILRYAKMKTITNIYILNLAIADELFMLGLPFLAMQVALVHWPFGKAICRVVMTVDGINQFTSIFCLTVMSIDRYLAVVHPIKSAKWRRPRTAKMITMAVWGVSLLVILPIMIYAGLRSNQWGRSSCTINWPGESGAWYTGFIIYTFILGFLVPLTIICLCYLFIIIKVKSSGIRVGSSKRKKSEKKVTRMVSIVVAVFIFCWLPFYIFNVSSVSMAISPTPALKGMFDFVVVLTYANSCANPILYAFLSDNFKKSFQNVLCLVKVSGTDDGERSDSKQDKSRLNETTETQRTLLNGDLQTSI
Method: Wild-type or mutant SSTR2, β-arrestin 1-Nluc and FYVE-mVenus were co-transfected in HEK293 cells at a ratio of 1:0.5:4 on six-well plates. The next day, the transfected cells were plated on white 96-well and incubated overnight, and then cells were incubated with 90 µL HBSS containing 20 mM HEPES and coelenterazine h (5 µM) at room temperature for 40 min. After incubation, ligand was added and the signal was measured using the Synergy H1 microplate reader (BioTek) to determine a BRET ratio.

[4] = biological target: SSTR2 mutants (Homo sapiens, UniProt P30874, Y312A)
SSTR2 mutants (Homo sapiens, UniProt P30874, Y312A), sequence (P30874 whole entry Y312A): as the sequence (P30874 whole entry, the tested form may be a part) above, with Y312A counted along it

[5] = biological target: SSTR2 mutants (Homo sapiens, UniProt P30874, R140A)
SSTR2 mutants (Homo sapiens, UniProt P30874, R140A), sequence (P30874 whole entry R140A): as the sequence (P30874 whole entry, the tested form may be a part) above, with R140A counted along it

[6] = system: SSTR2; assay: β-arrestin recruitment with co-transfection of GRK2; assay type: cell-based, human; details: N276(6.55)A and F294(7.35)A with GRK2 co-transfection
Method: In addition, we measured the function of the residues located in the core region and the common ligand binding pocket.
Human full-length β-arrestin 1 was cloned into pcDNA3.1+ vector with the large fragment (LgBiT) of the NanoBiT system and a 15-amino acid flexible linker ([sequence]) at the N-terminus. Human full-length SSTR wild-type and mutant vectors were C-terminally fused with a 15-amino acid flexible linker and the small fragment (SmBiT). HEK293 cells were seeded into six-well microplates at a density of 1.0 × 10^6 cells/well and cultured for 24 h at 37 °C with 5% CO2. After that, cells were co-transfected with pcDNA3.1+ vectors encoding SSTR wild-type or mutants and human β-arrestin 1. After transfecting for 24 h, the transfected cells were suspended and seeded into white 96-well plates, and then cultured at 37 °C overnight. After that the medium in each well was exchanged for 90 μl of 0.01% bovine serum albumin containing 20 μl of 50 μM coelenterazine h (Carbosynth) diluted in the HBSS assay buffer and incubated for 40 min at room temperature. Then, ligands diluted in the assay buffer was added to each well and the luminescence intensity was measured using the Synergy H1 microplate reader and detected at room temperature in a time period. All data presented are means of at least three independent experiments.

[7] = system: SSTR2; assay: Bias factor (β value), Gi cAMP inhibition versus β-arrestin recruitment; assay type: cell-based, human
Method: as §1
The NanoBiT β-arrestin 1 recruitment assays were carried out according to the method described previously. […] Human full-length SSTR wild-type and mutant vectors were C-terminally fused with a 15-amino acid flexible linker and the small fragment (SmBiT). HEK293 cells were seeded into six-well microplates at a density of 1.0 × 10^6 cells/well and cultured for 24 h at 37 °C with 5% CO2. After that, cells were co-transfected with pcDNA3.1+ vectors encoding SSTR wild-type or mutants and human β-arrestin 1. After transfecting for 24 h, the transfected cells were suspended and seeded into white 96-well plates, and then cultured at 37 °C overnight. After that the medium in each well was exchanged for 90 μl of 0.01% bovine serum albumin containing 20 μl of 50 μM coelenterazine h (Carbosynth) diluted in the HBSS assay buffer and incubated for 40 min at room temperature. Then, ligands diluted in the assay buffer was added to each well and the luminescence intensity was measured using the Synergy H1 microplate reader and detected at room temperature in a time period. All data presented are means of at least three independent experiments.
All data in this study were analyzed using GraphPad Prism 7 and were expressed as the error bars and the standard error of means ± SEM from at least n = 3 biologically independent experiments performed in triplicate. All curve data were normalized to the maximal wild-type and processed using a sigmoidal dose response curve in GraphPad Prism 7. Statistical differences between conditions were determined by one-way of variance ANOVA with Dunnett’s test or T-test.

[8] = Best-fit values, WT-1 (N276A set)
[9] = Best-fit values, WT-1 (P220A, I130A, F265A sets)
[10] = Best-fit values, WT-1 (R140A, Y312A sets)
[11] = Best-fit values, WT-1/-3 (W269A set), WT-2 (N276A set), WT-1 (I284A set)
[12] = Best-fit values, WT-2 (P220A, I130A, F265A sets)
[13] = Best-fit values, WT-2 (R140A, Y312A sets)
[14] = Best-fit values, WT-2 (W269A, I284A sets)
[15] = Best-fit values, WT-3 (N276A set)
[16] = best-fit, SSTR2 WT-1 (control in F294A block), run 1
[17] = best-fit, SSTR2 WT-1 (control in K291A block), run 1
[18] = best-fit, SSTR2 WT-2 (control in F294A block), run 2
[19] = best-fit, SSTR2 WT-2 (control in K291A block), run 2

SSTR3 mutants (Homo sapiens, UniProt P32745), sequence (P32745 whole entry N104V): as the sequence (P32745 whole entry H192T) above, with N104V, T192H counted along it

With `C[C@@H](O)[C@@H]1NC(=O)[C@H](CCCCN)NC(=O)[C@@H](Cc2c[nH]c3ccccc23)NC(=O)[C@H](Cc2ccccc2)NC(=O)[C@@H](NC(=O)[C@H](N)Cc2ccccc2)CSSC[C@@H](C(=O)N[C@H](CO)[C@@H](C)O)NC1=O` [octreotide] the Emax ([1]; HEK293) was 120 ± 3.57%, the “LogEC50 (best-fit)” value ([1]; run 1) was -8.602 and the “Top (best-fit)” value ([1]; run 1) was 99.48. For the same molecule, the “LogEC50 (best-fit)” value ([1]; run 2) was -8.875, the “Top (best-fit)” value ([1]; run 2) was 120.3 and the “LogEC50 (best-fit)” value ([1]; run 3) was -8.73. The “Top (best-fit)” value ([1]; run 3) was 98.22, the “LogEC50 (best-fit)” value ([1]; run 4) was -9.386 and the “Top (best-fit)” value ([1]; run 4) was 101.4. The “EC50 of mutant versus wild-type” value ([2]; H192(45.51)T mutant of SSTR3) was “retained a similar EC50 as wild-type receptor”, the Emax ([2]; HEK293, Suppl. Tables 4/5, SSTR3 H192(45.51)T, n=3, read-out: Emax) was 92.4 ± 10.2% and the “LogEC50 (best-fit)” value ([2]; run 1) was -7.081. For the same molecule, the “Top (best-fit)” value ([2]; run 1) was 99.15, the “LogEC50 (best-fit)” value ([2]; run 2) was -7.677 and the “Top (best-fit)” value ([2]; run 2) was 107.4. For the same molecule, the “LogEC50 (best-fit)” value ([2]; run 3) was -7.174, the “Top (best-fit)” value ([2]; run 3) was 100.5 and the “LogEC50 (best-fit)” value ([2]; run 4) was -7.758. For the same molecule, the “Top (best-fit)” value ([2]; run 4) was 101.2, the Bottom [3, 8] was -3.249 and the Span [3, 8] was 103. The Top [3, 8] was 99.78, the Bottom [3, 9] was 16.02 and the Span [3, 9] was 79.41. It also gave a Top [3, 9] of 95.44, a Bottom [3, 10] of -2.667 and a Span [3, 10] of 105.4. For the same molecule, the Top [3, 10] was 102.8, the Span ([3]; Best-fit values, WT-1/-3 (W269A set), WT-2 (N276A set)) was 83.76 and the Bottom [3, 11] was 4.545. For the same molecule, the Top [3, 11] was 88.3, the Bottom [3, 12] was 0.5214 and the Span [3, 12] was 104.2. It also gave a Top [3, 12] of 104.7, a Bottom [3, 13] of -1.531 and a Span [3, 13] of 100.4. It also gave a Top [3, 13] of 98.89, a Span ([3]; Best-fit values, WT-2 (W269A set)) of 83.11 and a Bottom [3, 14] of 7.543. The Top [3, 14] was 90.66, the Bottom [3, 15] was -1.634 and the Span [3, 15] was 102.4. It also gave a Top [3, 15] of 100.7, an Emax ([3]; HEK293, Bystander BRET, SSTR2-WT, n=6, read-out: Emax) of 100% and a Bottom [3, 16] of 14.58. The Span [3, 16] was 85.75, the Top [3, 16] was 100.3 and the Span ([3]; best-fit, SSTR2 WT-1 (control in I284A and K291A blocks), run 1) was 83.76. The Bottom [3, 17] was 4.545, the Top [3, 17] was 88.3 and the Bottom [3, 18] was 19.75. For the same molecule, the Span [3, 18] was 76.3, the Top [3, 18] was 96.05 and the Span ([3]; best-fit, SSTR2 WT-2 (control in I284A and K291A blocks), run 2) was 83.11. For the same molecule, the Bottom [3, 19] was 7.543, the Top [3, 19] was 90.66 and the Bottom ([3]; best-fit, SSTR2 WT-3 (control in F294A block), run 3) was -1.634. For the same molecule, the Emax [4] was 45.6 ± 1.21%, the Emax [5] was 48.4 ± 0.93% and the “β-arrestin recruitment with GRK2” value [6] was “nearly abolished”. The “Effect of microswitch mutations” value ([7]; CWxP, PIF, DRY and NPxxY motif mutants versus wild-type SSTR2) was “decreased the potency of β-arrestin recruitment more markedly than the activation ability of Gi signaling” and the “Effect of mutants on both signals” value ([7]; D122(3.32) and Q126(3.36) mutants) was “markedly affected both β-arrestin and Gi signal”.

From PMC9944328 (Nature Communications, 2023)
